{"source": "patent US9078874B2", "about": "“Composition and method for treating cognitive impairments in down syndrom subjects” (Centre National De La Recherche Scientifique—CNRS, priority 2009, dated 2015)", "key": {"[1]": {"details": "in vivo; cited from earlier work"}, "[2]": {"system": "Ts65Dn mice", "details": "mouse, in vivo; cited from earlier work"}, "[3]": {"system": "euploid and Ts65Dn mice", "assay": "Pro-convulsant effects after pentylenetetrazol (45 mg/kg)", "assay_type": "in vivo", "details": "sub-convulsant dose 45 mg/kg i.p.", "description": "For testing the pro-convulsant effects of α5IA, a sub-convulsant dose of pentylenetetrazole (45 mg/kg i.p.) that induces myoclonic convulsions in about 50% of mice was injected i.p. 20 min after injection of α5IA (50 mg/kg) or placebo.\nThe proconvulsant action of the α5IA was measured after injection of a subconvulsive dose of pentylenetetrazole. Mice were injected with either vehicle or the α5IA (50 mg/kg i.p) and 20 min later they received an intraperitoneal injection of 45 mg/kg of pentylenetetrazole. […] Six to 7 mice were used for each condition. The latency to the first myoclonic jerk episode and the convulsion grade were recorded during a 1200-s period of observation. Four grades were empirically determined: Grade 0: no effect; grade 1: tail up and curved; grade 2: reversed tail and convulsive shivers; grade 3: myoclonic convulsions.\nWe then tested the proconvulsant effect of α5IA by injecting it (50 mg/kg) 20 min before a sub-convulsant dose of pentylenetetrazol (45 mg/kg) that induces myoclonic convulsions in about 50% of mice."}, "[4]": {"system": "cognitively-normal wildtype rodents", "details": "cited from earlier work"}, "[5]": {"system": "children with Down syndrome", "details": "7 to 13 year-old children with Down syndrome; even at doses associated with adverse effects; cited from earlier work"}}, "data": [{"smiles": "COC(=O)c1cc2c(cn1)[nH]c1ccccc12", "note": "[β-CCM]", "values": [{"measurement": "convulsant liability", "setting": "[1]", "result": "proconvulsant or convulsant"}, {"measurement": "spatial learning in the Morris watermaze", "setting": "[1]", "result": "enhanced spatial learning"}]}, {"smiles": "C1CCc2nnnn2CC1", "note": "[pentylenetetrazole]", "values": [{"measurement": "cognition enhancement effect in treated mice compared to control non-treated mice", "setting": "[2]", "result": "did not show a cognition enhancement effect"}, {"measurement": "mice with myoclonic convulsions", "setting": "[3]", "result": "about 50 % of mice"}, {"measurement": "acquisition in the reference memory water maze test", "setting": "[4]", "result": "can facilitate acquisition"}]}, {"smiles": "NC(=O)CN1CCCC1=O", "note": "[piracetam]", "values": [{"measurement": "cognitive and behavioural measures", "setting": "[5]", "result": "neither cognitive nor behavioural measures demonstrated improvement"}]}, {"smiles": "CCOC(=O)c1ncn2c1[C@@H]1CCCN1C(=O)c1cc(OC)ccc1-2", "note": "[L-655,708]", "values": [{"measurement": "acquisition in the reference memory water maze test", "setting": "[4]", "result": "can facilitate acquisition"}]}]}
